Some test systems named below: EKVX; SNB-75; SF-539; SK-OV-3; IGROV-1; SK-MEL-28; OVCAR-8; Hs-578T; K562; RXF 393; ACHN; MDA-N; HCT-116; UACC-62; OVCAR-4; HL-60; HCT-15; LOX IMVI; SK-MEL-2; A498.
Experiment in all cases: NCI-60 cell line screen, 48 h

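Interpolation was linear, between the two tested concentrations surrounding the appropriate level; five concentrations were tested over 48 hours in 96-well plates. Abbreviation: GI50, concentration required for 50% inhibition of growth.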 Active and inactive are the calls of the source. Cut-off read from the data, not from the text of the source: active = GI50 up to about 1.1 µM and inactive = higher.

For `O=C1/C(=C/c2ccc([N+](=O)[O-])cc2)Oc2cc(O)ccc21`, the GI50 in the test with EKVX is 33.7 µM (inactive); in the test with SNB-75 it was 32.2 µM (inactive); with SF-539 it was 23.4 µM (inactive); in the test on SK-OV-3, 25.1 µM (inactive); in the test with IGROV-1 it was 29.1 µM (inactive); in the test on SK-MEL-28, 41 µM (inactive). Besides, the GI50 was 29.6 µM (inactive) with OVCAR-8; 17.1 µM (inactive) in the test with Hs-578T; 17.9 µM (inactive) with K562; 45 µM (inactive) in the test with RXF 393; 25.4 µM (inactive) in the test on ACHN; 23.2 µM (inactive) in the test on MDA-N. The GI50 with HCT-116 is 26.2 µM (inactive); in the test on UACC-62, 33 µM (inactive); with OVCAR-4, 39.6 µM (inactive); in the test with HL-60, 17.5 µM (inactive); in the test on HCT-15, 25.1 µM.

`CC1(C)O[C@@H](CP(c2ccc3ccccc3c2)c2ccc3ccccc3c2)[C@H](CP(c2ccc3ccccc3c2)c2ccc3ccccc3c2)O1`: the GI50 was > 100 µM (inactive) in the test with LOX IMVI; > 100 µM (inactive) in the test on EKVX; > 100 µM (inactive) with SNB-75; > 100 µM (inactive) in the test with SK-OV-3; 33 µM (inactive) in the test with IGROV-1; > 100 µM (inactive) in the test with SK-MEL-28. Also, the GI50 was > 100 µM (inactive) in the test with OVCAR-8; 77.1 µM (inactive) in the test with K562; > 100 µM (inactive) in the test on RXF 393; > 100 µM (inactive) in the test with ACHN; > 100 µM (inactive) with SK-MEL-2; > 100 µM (inactive) in the test on MDA-N. The GI50 with HCT-116 was > 100 µM (inactive); in the test on UACC-62, > 100 µM (inactive); in the test on OVCAR-4 it was > 100 µM (inactive); in the test on HCT-15, > 100 µM.

As to `O=C(c1ccccc1)c1ccc2[nH]c(-c3c(Cl)c(Cl)c(Cl)c(Cl)c3C(=O)N/N=C/c3ccc(Cl)cc3)nc2c1`, the GI50 with LOX IMVI is 34 µM (inactive); in the test with EKVX it was 23.2 µM (inactive); in the test with SNB-75 it was 47 µM (inactive); in the test with SF-539, 64.9 µM (inactive); with SK-OV-3, 41.1 µM (inactive); in the test on IGROV-1, 33 µM (inactive). Further, the GI50 is 33 µM (inactive) with SK-MEL-28; 51.8 µM (inactive) with OVCAR-8; 57.9 µM (inactive) with Hs-578T; 23.7 µM (inactive) in the test with K562; 22.5 µM (inactive) with RXF 393; 19.9 µM (inactive) in the test on ACHN. Besides, the GI50 was 29.4 µM (inactive) with SK-MEL-2; 29.8 µM (inactive) with MDA-N; 44.6 µM (inactive) in the test with HCT-116; 30.3 µM (inactive) in the test with OVCAR-4; 4.06 µM (inactive) in the test with HL-60; 24.2 µM in the test on HCT-15.

Consider `CC1(C)/C(=N\NC(N)=O)C2CCC1C2` (stereo unspecified), for which the GI50 in the test with LOX IMVI, in the test on EKVX, in the test on SNB-75, in the test with SK-OV-3, in the test with IGROV-1 and in the test on SK-MEL-28 was > 100 µM (inactive) in each case. Moreover, the GI50 in the test on OVCAR-8, in the test on Hs-578T, in the test with K562, with ACHN, with SK-MEL-2 and in the test on MDA-N was > 100 µM (inactive) in each case. The GI50 in the test with HCT-116 is > 100 µM (inactive); with UACC-62, > 100 µM (inactive); with OVCAR-4, > 100 µM (inactive); with HL-60 it was > 100 µM (inactive); with HCT-15, > 100 µM.

With `COc1cc(C2c3cc4c(cc3C(=O)C3CCC(=O)N32)OCO4)cc(OC)c1O` (stereo unspecified), the GI50 in the test with EKVX, in the test on SNB-75, with SF-539, with SK-OV-3, in the test on IGROV-1 and with SK-MEL-28 was > 50 µM (inactive) in each case. The GI50 in the test on OVCAR-8, in the test on K562, with RXF 393, with ACHN, with SK-MEL-2 and with MDA-N was > 50 µM (inactive) in each case. Further, the GI50 with A498 is > 50 µM (inactive); in the test with HCT-116, > 50 µM (inactive); with UACC-62, > 50 µM (inactive); in the test on OVCAR-4, > 50 µM (inactive); in the test on HL-60 it was > 50 µM (inactive); in the test on HCT-15, > 50 µM.

In the case of `O=C(O)/C=C/c1ccc(Oc2ccccc2C(=O)O)o1`, the GI50 in the test with LOX IMVI, in the test with SNB-75, in the test on SF-539, in the test with SK-OV-3, with IGROV-1 and in the test on SK-MEL-28 was > 10 µM (inactive) in each case. Further, the GI50 in the test on OVCAR-8, with Hs-578T, with K562, in the test on ACHN, in the test with MDA-N and with HCT-116 was > 10 µM (inactive) throughout. Further, the GI50 was > 10 µM (inactive) in the test with UACC-62, > 10 µM (inactive) in the test with OVCAR-4, > 10 µM (inactive) in the test with HL-60 and > 10 µM in the test on HCT-15.

`Cc1ccc(N/N=C/C2=CC(C)(C)C(C#N)(C#N)C(O)=C2C#N)cc1`: the GI50 is 65.8 µM (inactive) in the test on LOX IMVI; 61.1 µM (inactive) in the test with EKVX; 45.5 µM (inactive) with SNB-75; > 100 µM (inactive) in the test on SF-539; 58.2 µM (inactive) with SK-OV-3; 21 µM (inactive) in the test on IGROV-1. In addition, the GI50 with SK-MEL-28 was 85.5 µM (inactive); in the test with OVCAR-8, 38.4 µM (inactive); in the test with Hs-578T, > 100 µM (inactive); in the test with K562 it was 21.3 µM (inactive); with RXF 393, 33.2 µM (inactive); in the test on ACHN, 45.5 µM (inactive). In addition, the GI50 was 54.8 µM (inactive) in the test on MDA-N; 35.4 µM (inactive) in the test on HCT-116; 30.4 µM (inactive) with UACC-62; 96.8 µM (inactive) in the test on OVCAR-4; 17.3 µM (inactive) with HL-60.

Regarding `O=C1CSc2nnc(CCCCCCCCc3nnc4n3NC(=O)CS4)n2N1`, the GI50 was > 100 µM (inactive) in the test with EKVX; 32.1 µM (inactive) in the test with SNB-75; 48.9 µM (inactive) in the test on SF-539; > 100 µM (inactive) with SK-OV-3; 42.6 µM (inactive) with IGROV-1; > 100 µM (inactive) with SK-MEL-28. Besides, the GI50 in the test with OVCAR-8 is 27.4 µM (inactive); in the test with K562, 37.8 µM (inactive); in the test on ACHN, > 100 µM (inactive); in the test on SK-MEL-2, > 100 µM (inactive); in the test on MDA-N it was > 100 µM (inactive); in the test with A498, > 100 µM (inactive). Further, the GI50 was 91.2 µM (inactive) with HCT-116; > 100 µM (inactive) in the test on UACC-62; > 100 µM (inactive) with OVCAR-4; 31.5 µM (inactive) with HL-60; 37.2 µM in the test with HCT-15.

Source of the values: ChEMBL document CHEMBL1201862, “PubChem BioAssay data set” (2004).
